Experimental data taken from patent US20240218344A1, “LIQUID THROMBIN REAGENT” (Instrumentation Laboratory Company, priority 2022, published 2024).
Counter-ions that a name gives are not always drawn.

Columns and labels:
Assay type in all cases: biochemical
factor Xa = experiment: Factor Xa chromogenic assay with guanidine and guanidine derivatives; conditions: dilution series in water, 6 nkat/mL factor Xa, substrate S-2732, 405 nm; FIG. 4
Procedure: In this experiment, the effects of guanidine sulfate and the guanidine derivatives: 1-methylguanidine sulfate, 1,1-dimethylguanidine sulfate, 1,1-diethylguanidine, and N-benzyl, N-methylguanidine sulfate were analyzed using a chromogenic assay. A series of dilutions was prepared in water with guanidine or a guanidine derivative of the type described herein. 40 μL of each of the guanidine or guanidine derivatives were mixed for 20 to 60 seconds with 40 μL of 6 nanokatal per milliliter (nkat/mL) factor Xa diluted in 20 mM HEPES, pH 7.5 buffer. After an incubation period of 150 to 180 seconds, 100 μL of the factor Xa chromogenic substrate S-2732 (1.5 mM) was added to each of the guanidine and factor Xa mixtures and was chromogenically measured at 405 nm milli-absorbance per minute (mAbs/min) after a 20 second delay.

bovine thrombin [1] = molecular target: bovine thrombin (Bos taurus, UniProt P00735); experiment: Stability of liquid thrombin reagent with alkylated guanidine derivatives, clotting assay; conditions: 25 mM guanidine derivative, approximately 75 U/mL bovine thrombin, MES pH 6.3, stored at 37° C. for 7 or 14 days; FIG. 5
Procedure: (§1) In the clotting assay, the liquid thrombin reagent was diluted with an aqueous buffer to a final thrombin concentration of within 5 to 15 U/mL of thrombin. Then, 20 to 40 microliters (μL) of the diluted liquid thrombin reagent was mixed with 80 μL of a reaction buffer containing 20 mM HEPES, pH 7.4, containing 150 mM NaCl and 0.5% BSA (bovine serum albumin). After an incubation period of 60 to 90 seconds at 37° C., 80 μL of normal pooled plasma was added to the mixture and the time to clot was determined using a threshold algorithm.
The effects of guanidine derivatives were analyzed using a clotting assay. In this experiment, liquid thrombin reagents containing bovine thrombin were diluted to a final concentration of approximately 75 U/mL thrombin with an aqueous buffer comprising a MES buffer containing 20 mM MES, pH 6.3, and 0.1% ProClin™ 300, with and without 25 mM of 1-methylguanidine (MMG), 25 mM of 1.1-dimethylguanidine (DMG) and 25 mM of 1,1-diethylguanidine (DEG).
Liquid thrombin reagents of the type described herein containing guanidine derivatives, and one without a guanidine derivative, were stored at 37° C. for 0, 7, and 14 days and tested using the clotting assay after mixing with normal pooled plasma.

thrombin [2] = experiment: Thrombin concentrations for liquid thrombin reagent stability, clotting assay; conditions: 30 mM DMG, 37° C. for 7 days, FIG. 7
Procedure: as §1
The effect of guanidine derivatives on a series of thrombin concentrations were analyzed using a clotting assay. A series of liquid thrombin reagents containing 30 mM DMG were prepared by diluting a 100 U/mL thrombin liquid thrombin reagent in MES buffer (containing 30 mM DMG, 20 mM MES, pH 6.3, and 0.1% ProClin™ 300) with MES buffer to final concentrations of 70, 56, 42, 28, 14 or 7 U/mL thrombin. The liquid thrombin reagents were stored at 37° C. for 7 days and tested for thrombin activity using the clotting assay.

thrombin [3] = experiment: Alkylated guanidine concentrations for thrombin stability, clotting assay; conditions: less than 20 mM DMG, 7 U/mL thrombin, 37° C. for 20 days versus 2 to 8° C.; FIG. 6
Procedure: as §1
A series of liquid thrombin reagents containing dimethylguanidine (DMG) were analyzed using a clotting assay. A series of liquid thrombin reagents containing 7 U/mL liquid thrombin were prepared in an aqueous buffer containing 20 mM MES, pH 6.3, 0.1% ProClin™ 300, and a final concentration of 5, 10, 15, 20, 25, or 30 mM DMG. The resulting liquid thrombin reagents were stored at 37° C for 20 days, and the remaining thrombin activity was compared to the liquid thrombin reagent containing the same concentration of guanidine derivative stored at 2 to 8° C. for 20 days.

bovine thrombin [4] = experiment: Stability of liquid thrombin reagent with apixaban, clotting assay; conditions: 500 ng/ml apixaban, approximately 100 U/mL bovine thrombin, stored at 45° C. for 0-14 days; FIG. 3
Procedure: In the clotting assay, the liquid thrombin reagent was diluted with an aqueous buffer to a final thrombin concentration of within 5 to 15 U/mL of thrombin. Then, 20 to 40 microliters (μL) of the diluted liquid thrombin reagent was mixed with 80 μL of a reaction buffer containing 20 mM HEPES, pH 7.4, containing 150 mM NaCl and 0.5% BSA (bovine serum albumin). After an incubation period of 60 to 90 seconds at 37° C., 80 μL of normal pooled plasma was added to the mixture and the time to clot was determined using a threshold algorithm. In this experiment, the effects of the direct factor Xa inhibitor apixaban was analyzed using a clotting assay. Liquid thrombin reagent containing low purity grade bovine thrombin was diluted to a final concentration of approximately 100 U/mL thrombin in an aqueous buffer containing 20 mM MES, pH 6.1, 100 mM NaCl, 25 mM sodium acetate, 25 mM sodium lactate, 5 mM CaCl2, 0.5% BSA, and 0.4 g/L NaN3. Apixaban was dissolved in dimethyl sulfoxide (DMSO) and diluted to a final concentration of 500 ng/ml apixaban in a sample of the liquid thrombin reagent. Liquid thrombin reagents with and without apixaban were stored at 45° C. for 0, 2, 4, 7, 10 and 14 days, and tested in quadruplicate by the clotting assay after mixture with normal pooled plasma. […]

Compound | factor Xa inhibition (factor Xa) | thrombin activity after storage (bovine thrombin [1]) | further results
CN(Cc1ccccc1)C(=N)N.O=S(=O)(O)O [N-benzyl N-methylguanidine sulfate, N-benzyl, N-methylguanidine sulfate] | reduced factor Xa inhibition |  | 
CCN(CC)C(=N)N [diethylguanidine sulfate, 1,1-diethylguanidine] | largest extent of factor Xa inhibition | little or no decrease in thrombin activity | 
CN(C)C(=N)N.O=S(=O)(O)O [dimethylguanidine sulfate, 1,1-dimethylguanidine sulfate] | largest extent of factor Xa inhibition | little or no decrease in thrombin activity | remaining thrombin activity (thrombin [2]; less than about 20 U/mL thrombin): declined; remaining thrombin activity (thrombin [2]; more than about 20 U/mL thrombin): did not decline significantly; remaining thrombin activity (thrombin [3]): declined
COc1ccc(-n2nc(C(N)=O)c3c2C(=O)N(c2ccc(N4CCCCC4=O)cc2)CC3)cc1 [apixaban] |  |  | stability of the liquid thrombin reagent (time-to-clot versus reagent without apixaban) (bovine thrombin [4]): improves the stability of the liquid thrombin reagent in the long term
N=C(N)N.N=C(N)N.O=S(=O)(O)O [guanidine sulfate, reference compound] | least reduction in factor Xa inhibition |  | 
CNC(=N)N.O=S(=O)(O)O [1,1 methylguanidine sulfate, 1-methylguanidine sulfate] |  | little or no decrease in thrombin activity | 
